Data taken from patent US10988524B2, “Modified relaxin B chain peptides and their therapeutic use” (priority 2018, dated 2021).
Non-standard residues stand in square brackets, D forms with d. Residues, ends and D or L forms follow the SMILES beside them. 1Nal = N[C@@H](Cc1cccc2ccccc12)C(=O)O; αMeS = C[C@](N)(CO)C(=O)O; Nle = CCCC[C@H](N)C(=O)O; Aib = CC(C)(N)C(=O)O

Biological target: T1, RXFP1 (Homo sapiens, UniProt Q9HBX9)
T1 sequence (Q9HBX9 1-757): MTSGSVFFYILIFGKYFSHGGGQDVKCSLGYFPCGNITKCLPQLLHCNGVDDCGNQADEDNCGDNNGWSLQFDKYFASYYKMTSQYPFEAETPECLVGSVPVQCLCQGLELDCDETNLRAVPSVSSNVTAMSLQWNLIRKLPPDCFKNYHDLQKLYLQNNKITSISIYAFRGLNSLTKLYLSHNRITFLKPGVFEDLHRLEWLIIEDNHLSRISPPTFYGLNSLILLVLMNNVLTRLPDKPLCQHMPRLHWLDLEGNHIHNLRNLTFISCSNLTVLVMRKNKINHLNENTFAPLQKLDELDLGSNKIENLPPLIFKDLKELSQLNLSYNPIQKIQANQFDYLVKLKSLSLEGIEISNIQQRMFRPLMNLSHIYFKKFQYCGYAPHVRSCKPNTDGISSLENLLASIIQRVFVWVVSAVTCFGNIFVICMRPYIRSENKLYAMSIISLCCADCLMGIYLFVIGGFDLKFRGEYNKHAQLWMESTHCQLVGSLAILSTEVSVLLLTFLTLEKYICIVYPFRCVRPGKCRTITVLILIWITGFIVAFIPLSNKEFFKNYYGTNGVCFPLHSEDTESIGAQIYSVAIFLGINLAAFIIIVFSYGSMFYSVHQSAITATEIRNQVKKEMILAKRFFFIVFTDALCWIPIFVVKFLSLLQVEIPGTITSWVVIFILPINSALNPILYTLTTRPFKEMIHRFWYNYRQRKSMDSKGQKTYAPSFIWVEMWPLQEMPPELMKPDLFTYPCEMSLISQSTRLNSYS
Test: OVCAR5 cAMP assay (RXFP1 agonist activity, HTRF)
Conditions: for Emax: OVCAR-5, read-out: cAMP assay in OVCAR 5 cells Emax, maximal intracellular cAMP relative to H2-relaxin in the same test occasion; for EC50: cAMP assay in OVCAR 5 cells EC50 (nM), OVCAR5 cells expressing endogenous RXFP1, cAMP by HTRF, 30 min at 37° C., 1 mM IBMX

| Structure (SMILES) | Emax [%] | EC50 [nM] |
| --- | --- | --- |
| CCCC[C@H](NC(=O)CNC(=O)[C@H](CCC(=O)O)NC(=O)C(C)(C)NC(=O)C(C)(C)NC(=O)[C@@H](NC(=O)[C@H](CCC(N)=O)NC(=O)[C@H](C)NC(=O)[C@H](CCCNC(=N)N)NC(=O)[C@@H](NC(=O)[C@H](CCCCN)NC(=O)[C@H](CCC(=O)O)NC(=O)[C@H](CCCNC(=N)N)NC(=O)CNC(=O)[C@H](CCC(=O)O)NC(=O)[C@H](CC(C)C)NC(C)=O)C(C)C)[C@@H](C)CC)C(=O)N[C@@H](CO)C(=O)N[C@H](C(=O)N[C@@H](Cc1c[nH]c2ccccc12)C(=O)N[C@@H](C)C(=O)NC(C)(C)C(=O)N[C@@H](CCCNC(=N)N)C(=O)N[C@@H](CCCCN)C(=O)N[C@@H](CCCCN)C(N)=O)[C@@H](C)O [compound 22] (Ac-LEGREKVRAQI[Aib][Aib]EG[Nle]STWA[Aib]RKK-NH2) | 102 | – |
| CC[C@H](C)[C@H](NC(=O)C(C)(C)NC(=O)[C@H](C)NC(=O)[C@H](CCCNC(=N)N)NC(=O)[C@@H](NC(=O)[C@H](CCCCN)NC(=O)[C@H](CCC(=O)O)NC(=O)[C@H](CCCNC(=N)N)NC(=O)CNC(=O)[C@H](CCC(=O)O)NC(=O)[C@H](CC(C)C)NC(C)=O)C(C)C)C(=O)NC(C)(C)C(=O)NC(C)(C)C(=O)N[C@@H](CCC(=O)O)C(=O)NCC(=O)N[C@@H](CCSC)C(=O)N[C@@H](CO)C(=O)N[C@H](C(=O)N[C@@H](Cc1c[nH]c2ccccc12)C(=O)N[C@@H](CO)C(=O)NC(C)(C)C(=O)N[C@@H](CCCNC(=N)N)C(N)=O)[C@@H](C)O [compound 43] (Ac-LEGREKVRA[Aib]I[Aib][Aib]EGMSTWS[Aib]R-NH2) | 104 | – |
| CCCC[C@H](NC(=O)CNC(=O)[C@H](CCC(=O)O)NC(=O)C(C)(C)NC(=O)C(C)(C)NC(=O)[C@@H](NC(=O)[C@H](CCC(N)=O)NC(=O)[C@H](CCCCNC(C)=O)NC(=O)[C@H](CCCNC(=N)N)NC(=O)[C@@H](NC(=O)[C@H](CCCCN)NC(=O)[C@H](CCC(=O)O)NC(=O)[C@H](CCCNC(=N)N)NC(=O)CNC(=O)[C@H](CCC(=O)O)NC(=O)[C@H](CC(C)C)NC(C)=O)C(C)C)[C@@H](C)CC)C(=O)N[C@@H](CO)C(=O)N[C@H](C(=O)N[C@@H](Cc1c[nH]c2ccccc12)C(=O)N[C@@H](CO)C(=O)NC(C)(C)C(=O)N[C@@H](CCCNC(=N)N)C(=O)N[C@@H](CCCCN)C(=O)N[C@@H](CCCCN)C(N)=O)[C@@H](C)O [compound 33] (Ac-LEGREKVRK(Ac)QI[Aib][Aib]EG[Nle]STWS[Aib]RKK-NH2) | 105 | – |
| CCCC[C@H](NC(=O)CNC(=O)[C@H](CCC(=O)O)NC(=O)C(C)(C)NC(=O)C(C)(C)NC(=O)[C@@H](NC(=O)[C@H](CCCCNC(C)=O)NC(=O)[C@H](C)NC(=O)[C@H](CCCNC(=N)N)NC(=O)[C@@H](NC(=O)[C@H](CCCCN)NC(=O)[C@H](CCC(=O)O)NC(=O)[C@H](CCCNC(=N)N)NC(=O)CNC(=O)[C@H](CCC(=O)O)NC(=O)[C@H](CC(C)C)NC(C)=O)C(C)C)[C@@H](C)CC)C(=O)N[C@@H](CO)C(=O)N[C@H](C(=O)N[C@@H](Cc1c[nH]c2ccccc12)C(=O)N[C@@H](CO)C(=O)NC(C)(C)C(=O)N[C@@H](CCCNC(=N)N)C(=O)N[C@@H](CCCCNC(C)=O)C(=O)N[C@@H](CCCCNC(C)=O)C(N)=O)[C@@H](C)O [compound 28] (Ac-LEGREKVRAK(Ac)I[Aib][Aib]EG[Nle]STWS[Aib]RK(Ac)K(Ac)-NH2) | 92 | – |
| CCCC[C@H](NC(=O)CNC(=O)[C@H](CCC(=O)O)NC(=O)C(C)(C)NC(=O)C(C)(C)NC(=O)[C@@H](NC(=O)[C@H](CCC(N)=O)NC(=O)[C@H](C)NC(=O)[C@H](CCCNC(=N)N)NC(=O)[C@@H](NC(=O)[C@H](CCCCN)NC(=O)[C@H](CCC(=O)O)NC(=O)[C@H](CCCNC(=N)N)NC(=O)CNC(=O)[C@H](CCC(=O)O)NC(=O)[C@H](CC(C)C)NC(C)=O)C(C)C)[C@@H](C)CC)C(=O)N[C@@H](CO)C(=O)N[C@H](C(=O)N[C@@H](Cc1cccc2ccccc12)C(=O)N[C@@H](CO)C(=O)N[C@@H](CCCCN)C(=O)N[C@@H](CCCNC(=N)N)C(=O)N[C@@H](CCCCN)C(=O)N[C@@H](CCCCN)C(N)=O)[C@@H](C)O [compound 15] (Ac-LEGREKVRAQI[Aib][Aib]EG[Nle]ST[1Nal]SKRKK-NH2) | 104 | 24.4 |

Results, then the molecule that gave them:

| Emax [%] | EC50 [nM] | Structure (SMILES) |
| --- | --- | --- |
| 95 | 9.5 | CCCC[C@H](NC(=O)CNC(=O)[C@H](CCC(=O)O)NC(=O)C(C)(C)NC(=O)C(C)(C)NC(=O)[C@@H](NC(=O)[C@H](CCCCNC(C)=O)NC(=O)[C@H](C)NC(=O)[C@H](CCCNC(=N)N)NC(=O)[C@@H](NC(=O)[C@H](CCCCN)NC(=O)[C@H](CCC(=O)O)NC(=O)[C@H](CCCNC(=N)N)NC(=O)CNC(=O)[C@H](CCC(=O)O)NC(=O)[C@H](CC(C)C)NC(C)=O)C(C)C)[C@@H](C)CC)C(=O)N[C@@H](CO)C(=O)N[C@H](C(=O)N[C@@H](Cc1c[nH]c2ccccc12)C(=O)N[C@@H](CO)C(=O)NC(C)(C)C(=O)N[C@@H](CCCNC(=N)N)C(=O)N[C@@H](CCCCNC(C)=O)C(=O)N[C@@H](CCCCN)C(N)=O)[C@@H](C)O [compound 27] (Ac-LEGREKVRAK(Ac)I[Aib][Aib]EG[Nle]STWS[Aib]RK(Ac)K-NH2) |
| 93 | – | CCCC[C@H](NC(=O)CNC(=O)[C@H](CCC(=O)O)NC(=O)C(C)(C)NC(=O)C(C)(C)NC(=O)[C@@H](NC(=O)[C@H](CCCCNC(C)=O)NC(=O)[C@H](C)NC(=O)[C@H](CCCNC(=N)N)NC(=O)[C@@H](NC(=O)[C@H](CCCCN)NC(=O)[C@H](CCC(=O)O)NC(=O)[C@H](CCCNC(=N)N)NC(=O)CNC(=O)[C@H](CCC(=O)O)NC(=O)[C@H](CC(C)C)NC(C)=O)C(C)C)[C@@H](C)CC)C(=O)N[C@@H](CO)C(=O)N[C@H](C(=O)N[C@@H](Cc1c[nH]c2ccccc12)C(=O)N[C@@](C)(CO)C(=O)NC(C)(C)C(=O)N[C@@H](CCCNC(=N)N)C(=O)N[C@@H](CCCCN)C(=O)N[C@@H](CCCCNC(C)=O)C(N)=O)[C@@H](C)O [compound 30] (Ac-LEGREKVRAK(Ac)I[Aib][Aib]EG[Nle]STW[αMeS][Aib]RKK(Ac)-NH2) |
| 106 | 32.8 | CCCC[C@H](NC(=O)CNC(=O)[C@H](CCC(=O)O)NC(=O)C(C)(C)NC(=O)C(C)(C)NC(=O)[C@@H](NC(=O)[C@H](CCC(N)=O)NC(=O)[C@H](C)NC(=O)[C@H](CCCNC(=N)N)NC(=O)[C@@H](NC(=O)[C@H](CCCCN)NC(=O)[C@H](CCC(=O)O)NC(=O)[C@H](CCCNC(=N)N)NC(=O)CNC(=O)[C@H](CCC(=O)O)NC(=O)[C@H](CC(C)C)NC(C)=O)C(C)C)[C@@H](C)CC)C(=O)N[C@@H](CO)C(=O)N[C@@H](CCCCN)C(=O)N[C@@H](Cc1cccc2ccccc12)C(=O)N[C@@H](CO)C(=O)N[C@@H](CCCCN)C(=O)N[C@@H](CCCNC(=N)N)C(=O)N[C@@H](CCCCN)C(=O)N[C@@H](CCCCN)C(N)=O [compound 14] (Ac-LEGREKVRAQI[Aib][Aib]EG[Nle]SK[1Nal]SKRKK-NH2) |
| 103 | – | CCCC[C@H](NC(=O)CNC(=O)[C@H](CCC(=O)O)NC(=O)C(C)(C)NC(=O)C(C)(C)NC(=O)[C@@H](NC(=O)[C@H](CCC(N)=O)NC(=O)[C@H](C)NC(=O)[C@H](CCCNC(=N)N)NC(=O)[C@@H](NC(=O)[C@H](CCCCN)NC(=O)[C@H](CCC(=O)O)NC(=O)[C@H](CCCNC(=N)N)NC(=O)CNC(=O)[C@H](CCC(=O)O)NC(=O)[C@H](CC(C)C)NC(C)=O)C(C)C)[C@@H](C)CC)C(=O)N[C@@H](CO)C(=O)N[C@@H](CCCCN)C(=O)N[C@@H](Cc1cccc2ccccc12)C(=O)N[C@@H](CO)C(=O)N[C@@H](CCCCN)C(=O)N[C@@H](CCCNC(=N)N)C(N)=O [compound 36] (Ac-LEGREKVRAQI[Aib][Aib]EG[Nle]SK[1Nal]SKR-NH2) |
